Data taken from patent US20260070945A1, “MACROCYCLIC IMMUNOMODULATORS” (Bristol-Myers Squibb Company, priority 2022, published 2026).
*1 amine or outer side, *2 acyl side, *3 side chain or, on linkers, in order; H or OH if unused. Where a SMILES comes first, the peptide text is derived from it. Bridges are numbered along the chain shown (N, C = ends). [ ]: non-standard residue; d: D form. The star is where a group is joined. ξ: configuration not given here. Phe(4-COOH) = N[C@@H](Cc1ccc(C(=O)O)cc1)C(=O)O; Bip = N[C@@H](Cc1ccc(-c2ccccc2)cc1)C(=O)O; Phe(3-Me) = Cc1cccc(C[C@H](N)C(=O)O)c1; Cha = N[C@@H](CC1CCCCC1)C(=O)O; Cit = NC(=O)NCCC[C@H](N)C(=O)O; Thr(3ξ) = CC(O)[C@H](N)C(=O)O; CH2COCH2 = O=C(C[*:1])C[*:2]; Carboxymethyl = O=C(O)C*; NMeA = CN[C@@H](C)C(=O)O; Aun = NCCCCCCCCCCC(=O)O; Dab = NCC[C@H](N)C(=O)O; ξV = CC(C)C(N)C(=O)O

These compounds were tested against T1, PD-1/PD-L1 interaction (PE-labeled human PD-L1-Ig binding to Jurkat cell line over-expressing human PD-1) (Homo sapiens, UniProt Q15116) (assay: Jurkat-PD-1 Cell Binding High-Content Screening Assay (CBA)). Settings: Jurkat-hPD-1 cells, PE-labeled PD-L1-Ig 20 nM final; read-out: Jurkat HPD1 PDL1 IC50.
T1 construct: expressed in transfected cells; host or cells: Jurkat
T1 sequence (Q15116 25-288): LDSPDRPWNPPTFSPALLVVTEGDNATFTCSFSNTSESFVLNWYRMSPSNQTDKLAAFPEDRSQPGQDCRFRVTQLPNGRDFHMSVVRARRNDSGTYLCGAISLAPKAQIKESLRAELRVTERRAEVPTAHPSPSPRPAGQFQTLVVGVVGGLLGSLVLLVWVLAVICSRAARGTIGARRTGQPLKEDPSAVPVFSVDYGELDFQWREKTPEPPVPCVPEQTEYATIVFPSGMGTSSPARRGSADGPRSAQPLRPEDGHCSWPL
Outline: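 Jurkat cells overexpressing human PD-1 (8×10^3/well, DMEM + 10% FCS) preincubated with compound 2 h at 37 °C, then PE-labelled human PD-L1-Ig (20 nM final) for 1 h. Cells fixed in paraformaldehyde with Hoechst 33342; bound PD-L1 quantified by high-content imaging.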

Structure (SMILES)	IC50
Cc1cccc(C[C@@H]2NC(=O)[C@H](CC(=O)O)NC(=O)[C@H](Cc3c[nH]cn3)NC(=O)[C@H](Cc3ccc(OCC(=O)O)cc3)NC(=O)CSC[C@@H](C(=O)NCCCCCCCCCCC(=O)O)NC(=O)[C@H](CO)NC(=O)[C@H](C(C)C)NC(=O)[C@H](CC3CCCCC3)NC(=O)[C@H](CCN)NC(=O)[C@@H](CC(C)C)NC(=O)[C@H](C)N(C)C(=O)[C@H](Cc3ccc(OCC(=O)O)cc3)NC(=O)[C@H](Cc3ccc(-c4ccccc4)cc3)NC(=O)[C@H](CC(C)C)NC2=O)c1 [Example 2252] ({CH2CO}-Y(Carboxymethyl)HD[Phe(3-Me)]L[Bip]Y(Carboxymethyl)[NMeA][dL][Dab][Cha]VSC[Aun]-OH; thioether N-14)	0.127 µM
Cc1cccc(C[C@@H]2NC(=O)[C@H](CC(=O)O)NC(=O)[C@H](Cc3ccc(C(=O)O)cc3)NC(=O)[C@H](Cc3ccc(OCC(=O)O)cc3)NC(=O)CSC[C@@H](C(=O)NCCCCCCCCCCC(=O)O)NC(=O)[C@H](CCC(=O)O)NC(=O)[C@H](C(C)C)NC(=O)[C@H](CC3CCCCC3)NC(=O)[C@H](CCN)NC(=O)[C@@H](CC(C)C)NC(=O)[C@H](C)N(C)C(=O)[C@H](Cc3ccc(O)cc3)NC(=O)[C@H](Cc3ccc(-c4ccccc4)cc3)NC(=O)[C@H](CC(C)C)NC2=O)c1 [Example 2254] ({CH2CO}-Y(Carboxymethyl)[Phe(4-COOH)]D[Phe(3-Me)]L[Bip]Y[NMeA][dL][Dab][Cha]VEC[Aun]-OH; thioether N-14)	0.183 µM

The remaining compounds from weak to strong by IC50, led by results:

IC50	Structure (SMILES)
0.169 µM	Cc1cccc(C[C@@H]2NC(=O)[C@H](CC(=O)O)NC(=O)[C@H](Cc3c[nH]cn3)NC(=O)[C@H](Cc3ccc(OCC(=O)O)cc3)NC(=O)CSC[C@@H](C(=O)NCCCCCCCCCCC(=O)O)NC(=O)[C@H](CCC(N)=O)NC(=O)[C@H](C(C)C)NC(=O)[C@H](CC3CCCCC3)NC(=O)[C@H](CCN)NC(=O)[C@@H](CC(C)C)NC(=O)[C@H](C)N(C)C(=O)[C@H](Cc3ccc(O)cc3)NC(=O)[C@H](Cc3ccc(-c4ccccc4)cc3)NC(=O)[C@H](CC(C)C)NC2=O)c1 [Example 2251] ({CH2CO}-Y(Carboxymethyl)HD[Phe(3-Me)]L[Bip]Y[NMeA][dL][Dab][Cha]VQC[Aun]-OH; thioether N-14)
0.0119 µM	CC(=O)COc1ccc(C[C@@H]2NC(=O)[C@H](CCCNC(=N)N)NC(=O)CSC[C@@H](C(=O)N[C@@H](CCN)C(=O)NCCCCCCCCCCC(=O)O)NC(=O)[C@H](C(C)O)NC(=O)[C@H](C(C)C)NC(=O)[C@H](CC3CCCCC3)NC(=O)[C@H](CCN)NC(=O)[C@@H](CC(C)C)NC(=O)[C@H](C)N(C)C(=O)[C@H](Cc3ccc(OCC(=O)O)cc3)NC(=O)[C@H](Cc3ccc(-c4ccccc4)cc3)NC(=O)[C@H](CC(C)C)NC(=O)[C@H](Cc3cccc(C)c3)NC(=O)[C@H](CC(=O)O)NC2=O)cc1 (stereo partly drawn) [Example 2253] ({CH2CO}-RY(CH2COCH2)D[Phe(3-Me)]L[Bip]Y(Carboxymethyl)[NMeA][dL][Dab][Cha]V[Thr(3ξ)]C[Dab][Aun]-OH; thioether N-14)
0.011 µM	Cc1cccc(C[C@@H]2NC(=O)[C@H](CC(=O)O)NC(=O)[C@H](Cc3ccc(OCC(=O)O)cc3)NC(=O)[C@H](CC(N)=O)NC(=O)CSC[C@@H](C(=O)NCCCCCCCCCCC(=O)O)NC(=O)[C@H](CCCNC(N)=O)NC(=O)[C@H](C(C)C)NC(=O)[C@H](CC3CCCCC3)NC(=O)[C@H](CCN)NC(=O)[C@@H](CC(C)C)NC(=O)[C@H](C)N(C)C(=O)C(C(C)C)NC(=O)[C@H](Cc3ccc(-c4ccccc4)cc3)NC(=O)[C@H](CC(C)C)NC2=O)c1 (stereo partly drawn) [Example 2248] ({CH2CO}-NY(Carboxymethyl)D[Phe(3-Me)]L[Bip][ξV][NMeA][dL][Dab][Cha]V[Cit]C[Aun]-OH; thioether N-14)
